The structures appear in SMILES notation.

The record followed here is the PolyMetriX glass transition set.

`*C(=O)Nc1ccc(Oc2ccc(C(C)(C)c3ccc(Oc4ccc(NC(=O)c5ccc(N6C(=O)c7ccc(*)cc7C6=O)cc5)cc4)cc3)cc2)cc1` (repeat unit) had a glass transition temperature of 216.00 °C.
Consider `*C(=O)Nc1ccc(Oc2ccc(C(C)(C)c3ccc(Oc4ccc(NC(=O)c5ccc6c(c5)C(=O)N(c5ccc(Oc7ccc8ccc(Oc9ccc(N%10C(=O)c%11ccc(*)cc%11C%10=O)cc9)cc8c7)cc5)C6=O)cc4)cc3)cc2)cc1` (repeat unit), for which the glass transition temperature is 250.00 °C.
In turn, `*C(=O)Nc1ccc(Oc2ccc(C(C)(C)c3ccc(Oc4ccc(NC(=O)c5ccc6c(c5)C(=O)N(c5ccc(Oc7cccc8c(Oc9ccc(N%10C(=O)c%11ccc(*)cc%11C%10=O)cc9)cccc78)cc5)C6=O)cc4)cc3)cc2)cc1` (repeat unit) displayed a glass transition temperature of 235.00 °C.
On to `*C(=O)Nc1ccc(Oc2ccc(C(C)(C)c3cccc(C(C)(C)c4ccc(Oc5ccc(N6C(=O)c7ccc(*)cc7C6=O)cc5)cc4)c3)cc2)cc1` (repeat unit), for which the glass transition temperature worked out at 177.00 °C.
`*CC(=O)Nc1ccc(Oc2ccc(C(C)(C)c3ccc(Oc4ccc(NC(=O)CN5C(=O)c6ccc(C(c7ccc8c(c7)C(=O)N(*)C8=O)(C(F)(F)F)C(F)(F)F)cc6C5=O)cc4)cc3)cc2)cc1` (repeat unit) yielded a glass transition temperature of 224.00 °C.
As to `*Oc1ccc(C(C)(C)c2ccc(Oc3ccc(*)nn3)cc2)cc1` (repeat unit), the glass transition temperature was 180.00 °C.
The figure for `*Oc1ccc(NC(=O)c2ccc(Oc3ccc(C(C)(C)c4ccc(C(C)(C)c5ccc(Oc6ccc(C(=O)Nc7ccc(Oc8ccc(C(C)(C)c9ccc(*)cc9)cc8)cc7)cc6)cc5)cc4)cc3)cc2)cc1` (repeat unit) is 163.00 °C; for `*Oc1ccc(Oc2ccc(P(=O)(c3ccccc3)c3ccc(Oc4ccc(Oc5cccc(*)n5)cc4)cc3)cc2)cc1` (repeat unit) it is 164.00 °C; for `*Oc1ccc(Oc2ccc(S(=O)(=O)c3ccc(Oc4ccc(Oc5cccc(*)n5)cc4)cc3)cc2)cc1` (repeat unit) it is 158.00 °C.
The figure for `*Oc1ccc(P(=O)(c2ccccc2)c2ccc(Oc3ccc(C(C)(C)c4ccc(*)cc4)cc3)cc2)cc1` (repeat unit) is 199.00 °C; for `*Oc1ccc(P(=O)(c2ccccc2)c2ccc(Oc3ccc(C(c4ccc(*)cc4)(C(F)(F)F)C(F)(F)F)cc3)cc2)cc1` (repeat unit) it is 210.50 °C.
With `*Oc1ccc(S(=O)(=O)c2ccc(-c3ccc(S(=O)(=O)c4ccc(*)cc4)cc3)cc2)cc1` (repeat unit), the glass transition temperature is 282.00 °C.
On to `*Oc1ccc(S(=O)(=O)c2ccc(Oc3ccc(C(C)(C)c4ccc(*)cc4)cc3)c([N+](=O)[O-])c2)cc1[N+](=O)[O-]` (repeat unit), for which the glass transition temperature was found to be 206.00 °C.
With `*Oc1ccc(S(=O)(=O)c2ccc(Oc3ccc(C(C)(C)c4ccc(*)cc4)cc3)cc2)c(N)c1` (repeat unit) the figure was 202.00 °C.
With `*Oc1ccc(S(=O)(=O)c2ccc(Oc3ccc(C(C)(C)c4ccc(*)cc4)cc3)cc2)cc1` (repeat unit) the figure was 186.00 °C; with `*Oc1ccc(S(=O)(=O)c2ccc(Oc3ccc(C(c4ccc(*)cc4)(C(F)(F)F)C(F)(F)F)cc3)cc2)cc1` (repeat unit), 199.70 °C.
The figure for `*Oc1ccc(S(=O)(=O)c2ccc(Oc3ccc(C4(c5ccc(*)cc5)CC5CCC4C5)cc3)cc2)cc1` (repeat unit) is 250.00 °C.
In the case of `*Oc1ccc(S(=O)(=O)c2ccc(Oc3ccc(C4(c5ccc(*)cc5)CCCCC4)cc3)cc2)cc1` (repeat unit), the glass transition temperature came out at 226.00 °C.
With `*Oc1ccc(S(=O)(=O)c2ccc(Oc3ccc(C4(c5ccc(*)cc5)CCCCCC4)cc3)cc2)cc1` (repeat unit) the figure was 247.00 °C; with `*Oc1ccc(S(=O)(=O)c2ccc(Oc3ccc(C4(c5ccc(*)cc5)c5ccccc5-c5ccccc54)cc3)cc2)cc1` (repeat unit), 278.50 °C.
`*Oc1ccc(S(=O)(=O)c2ccc(Oc3ccc(C45CC6CC(CC(c7ccc(*)cc7)(C6)C4)C5)cc3)cc2)cc1` (repeat unit) yielded a glass transition temperature of 242.00 °C.
The compound `*Oc1ccc(S(=O)(=O)c2ccc(Oc3ccc(S(=O)(=O)c4ccc(-c5ccc(S(=O)(=O)c6ccc(*)cc6)cc5)cc4)cc3)cc2)cc1` (repeat unit) gave a glass transition temperature of 267.00 °C.
The figure for `*Oc1ccc2ccc(Oc3ccc(C(=O)Nc4ccc(Oc5ccc(C(C)(C)c6ccc(C(C)(C)c7ccc(Oc8ccc(NC(=O)c9ccc(*)cc9)cc8)cc7)cc6)cc5)cc4)cc3)cc2c1` (repeat unit) is 166.00 °C; for `*c1ccc(Oc2ccc(C(=O)c3cccc(-c4cccc(C(=O)c5ccc(Oc6ccc(-c7nc(-c8cccc(-c9nc(*)c(-c%10ccccc%10)[nH]9)c8)[nH]c7-c7ccccc7)cc6)cc5)c4)c3)cc2)cc1` (repeat unit) it is 250.00 °C.
`*c1ccc(Oc2ccc(C(=O)c3cccc(C(=O)c4ccc(Oc5ccc(-c6cc(*)[nH]n6)cc5)cc4)c3)cc2)cc1` (repeat unit) gave a glass transition temperature of 205.00 °C.
The figure for `*c1ccc(Oc2ccc(C(C)(C)c3ccc(Oc4ccc(-c5nnc(*)n5-c5ccc(C)cc5)cc4)cc3)cc2)cc1` (repeat unit) is 205.00 °C.
In turn, `*c1ccc(Oc2ccc(C(C)(C)c3ccc(Oc4ccc(N5C(=O)c6ccc(Oc7ccc(C(C)(C)c8ccc(Oc9ccc%10c(c9)C(=O)N(*)C%10=O)cc8)cc7)cc6C5=O)cc4)cc3)cc2)cc1` (repeat unit) displayed a glass transition temperature of 176.00 °C.
Turning to `*c1ccc(Oc2ccc(C(C)(C)c3ccc(Oc4ccc(N5C(=O)c6ccc(Oc7ccccc7Oc7ccc8c(c7)C(=O)N(*)C8=O)cc6C5=O)cc4C(F)(F)F)cc3)cc2)c(C(F)(F)F)c1` (repeat unit), the glass transition temperature turned out to be 192.00 °C.
With `*c1ccc(Oc2ccc(C(c3ccc(Oc4ccc(-c5ccc(*)s5)cc4C(F)(F)F)cc3)(C(F)(F)F)C(F)(F)F)cc2)c(C(F)(F)F)c1` (repeat unit) the figure was 155.00 °C; with `*c1ccc(Oc2ccc(C(c3ccc(Oc4ccc(-c5nnc(*)n5-c5ccc(C)cc5)cc4)cc3)(C(F)(F)F)C(F)(F)F)cc2)cc1` (repeat unit), 213.00 °C; with `*c1ccc(Oc2ccc(C(c3ccc(Oc4ccc(-c5nnc(*)n5-c5ccc(S(C)(=O)=O)cc5)cc4)cc3)(C(F)(F)F)C(F)(F)F)cc2)cc1` (repeat unit), 226.00 °C.
`*c1ccc(Oc2ccc(C(c3ccc(Oc4ccc(N5C(=O)c6ccc7c8c(ccc(c68)C5=O)C(=O)N(*)C7=O)cc4)c(S(=O)(=O)O)c3)(C(F)(F)F)C(F)(F)F)cc2S(=O)(=O)O)cc1` (repeat unit) returned a glass transition temperature of 270.00 °C.
With `*c1ccc(Oc2ccc(C(c3ccc(Oc4ccc(N5C(=O)c6ccc7c8c(ccc(c68)C5=O)C(=O)N(*)C7=O)cc4)cc3)(C(F)(F)F)C(F)(F)F)cc2)cc1` (repeat unit) the figure was 280.00 °C.
Take `*c1ccc(Oc2ccc(C(c3ccc(Oc4ccc(N5C(=O)CC(=O)N(*)C5=S)cc4)cc3)(C(F)(F)F)C(F)(F)F)cc2)cc1` (repeat unit): the glass transition temperature amounted to 147.00 °C.
Consider `*c1ccc(Oc2ccc(C3(c4ccc(Oc5ccc(-c6ccc(*)s6)cc5C(F)(F)F)cc4)c4ccccc4-c4ccccc43)cc2)c(C(F)(F)F)c1` (repeat unit), for which the glass transition temperature is 169.00 °C.
The figure for `*c1ccc(Oc2ccc(C3(c4ccc(Oc5ccc(N6C(=O)CC(=O)N(*)C6=S)cc5)cc4)c4ccccc4-c4ccccc43)cc2)cc1` (repeat unit) is 175.00 °C.
The compound `*c1ccc(Oc2ccc(N3C(=O)C4CCC5C(=O)N(*)C(=O)C5C4C3=O)cc2)cc1` (repeat unit) displayed a glass transition temperature of 342.00 °C.
Compound `*c1ccc(Oc2ccc(N3C(=O)N4C(c5ccc(OC)cc5)N(*)C(=O)N4C3c3ccc(OC)cc3)cc2)cc1` (repeat unit) displayed a glass transition temperature of 163.00 °C.
With `*c1ccc(Oc2ccc(Oc3ccc(N4C(=O)C5CCC6C(=O)N(*)C(=O)C6C5C4=O)cc3)cc2)cc1` (repeat unit) the figure was 274.00 °C.
`*c1ccc(Oc2ccc(Oc3ccc(N4C(=O)CC(=O)N(*)C4=S)cc3)cc2)cc1` (repeat unit) displayed a glass transition temperature of 157.00 °C.
With `*c1ccc(Oc2ccc(Oc3ccc(Oc4ccc(-n5c(=O)c6cc7c(=O)n(*)c(=O)c7cc6c5=O)cc4)cc3)cc2)cc1` (repeat unit) the figure was 295.00 °C; with `*c1ccc(Oc2ccc(Oc3ccc(P(=O)(c4ccccc4)c4ccc(Oc5ccc(Oc6ccc(-c7nc8ccc(-c9ccc%10nc(*)oc%10c9)cc8o7)cc6)cc5)cc4)cc3)cc2)cc1` (repeat unit), 223.00 °C; with `*c1ccc(Oc2ccc(Oc3ccc(P(=O)(c4ccccc4)c4ccc(Oc5ccc(Oc6ccc(-c7nc8ccccc8nc7*)cc6)cc5)cc4)cc3)cc2)cc1` (repeat unit), 209.00 °C.
As to `*c1ccc(Oc2ccc(S(=O)(=O)c3ccc(C)cc3)cc2)c(N2C(=O)c3ccc(-c4ccc5c(c4)C(=O)N(*)C5=O)cc3C2=O)c1` (repeat unit), the glass transition temperature is 281.00 °C.
As to `*c1ccc(Oc2ccc(S(=O)(=O)c3ccc(Oc4ccc(-c5c6c(c(*)c7ccccc57)C(=O)N(c5ccc(Cl)cc5)C6=O)cc4)cc3)cc2)cc1` (repeat unit), the glass transition temperature was 280.00 °C.
The figure for `*c1ccc(Oc2ccc(S(=O)(=O)c3ccc(Oc4ccc(-c5c6c(c(*)c7ccccc57)C(=O)N(c5cccc(C(F)(F)F)c5)C6=O)cc4)cc3)cc2)cc1` (repeat unit) is 280.50 °C.
`*c1ccc(Oc2ccc(S(=O)(=O)c3ccc(Oc4ccc(-c5c6c(c(*)c7ccccc57)C(=O)N(c5ccccc5)C6=O)cc4)cc3)cc2)cc1` (repeat unit): the glass transition temperature amounted to 310.00 °C.
`*c1ccc(Oc2ccc(S(=O)(=O)c3ccc(Oc4ccc(-c5c6c(c(*)c7ccccc57)C(=O)N(c5ccccc5-c5ccccc5)C6=O)cc4)cc3)cc2)cc1` (repeat unit) registered a glass transition temperature of 278.00 °C.
With `*c1ccc(Oc2ccc(S(=O)(=O)c3ccc(Oc4ccc(-c5c6c(c(*)c7ccccc57)C(=O)N(c5ccccc5C(F)(F)F)C6=O)cc4)cc3)cc2)cc1` (repeat unit), the glass transition temperature was found to be 290.00 °C.
